Laboratory results published in patent US20180303141A1, “FLAVOR COMPOSITION FOR FOOD PRODUCTS” (NESTEC S.A., priority 2015, published 2018).

Legend:
[1] = test system: sensory panel of 6 trained persons; experiment: Sensory evaluation of pea extract dissolved in water, umami intensity on a 3-point scale versus a control sample; type: in vivo, human; conditions: calculated for the example with pea extract containing 0.5% beta-R in water
Experimental: Different pea extract from Pisum sativum containing the composition as described in table 1 has been used to define the threshold concentrates in a sensory panel of 6 trained persons. The technical tasting was measured versus a control sample. Tasters were asked to judge the different products according to umami intensity on a 3-point scale.

umami taste = experiment: Fractionation of aqueous pea extract and analysis of the fractions with strong umami taste; conditions: compound identified in pea extract
Experimental: The applicant prepared an aqueous extract of pea, preferably green pea and then subjected that extract to fractionation.
The compounds were isolated and characterized using two-dimensional preparative chromatography. For example, size exclusion chromatography in the first dimension, then hydrophilic interaction column (normal phase) in a second dimension. Identification of compounds was carried out using conventional analytical methods such as LC-MS or NMR.

[2] = test system: panel of six experienced tasters; experiment: Evaluation of the umami impression of the pea extract in different bouillon bases (scale 0-3); type: in vivo, human; conditions: bouillon base containing sub-threshold MSG (60 mg/L), no pea extract; average of six tasters, 0=no umami, 3=strong umami
Excerpt: It is clear from Example 3 that the umami impression cannot be explained solely by the MSG content. The MSG taste threshold is described in the literature as between 0.255 and 0.5 g MSG/L (1.5-3 mmol/L) (Behrens, M., et al. (2011) Sweet and Umami Taste: Natural Products, Their Chemosensory Targets, and Beyond; Angew. Chem. Int. Ed., 50, 2220-2242). Therefore the MSG content for the Pisum sativum extract is below the taste threshold. To confirm the umami taste of the pea extract, all MSG containing ingredients (MSG, ribonucleotides and yeast extract) were removed from a standard bouillon. Pea extract was added. […] The effect of the addition of a pea extract to a bouillon base (which has no intrinsic umami taste) is to provide a strong umami taste. It is clear that the pea extract alone promotes umami taste, and that this effect is even greater in the presence of MSG.
The pea extract used was obtained by a blanching water process containing the composition as described in table 1.
The results given are the average rating of a panel of six experienced tasters rating the umami intensity (0=no umami; 1=umami barely perceivable; 2=umami clearly perceivable; 3=strong umami).

[3] = test system: panel of 12 experienced tasters; experiment: Comparison of the umami impression of a standard bouillon containing MSG and a bouillon with pea extract but no MSG (scale 0-10); type: in vivo, human; conditions: standard bouillon containing MSG; average of 12 tasters, 0=no umami, 10=strong umami
Excerpt: A standard bouillon containing no MSG but added pea extract was compared to the same standard bouillon containing MSG. A trained panel rated the bouillons on a scale from 0 (no umami) to 10 (strong umami). This gives evidence that the pea extract delivers a strong umami even it is less than to MSG itself, but the taste is received as being more natural and round mouthfeel instead of using MSG alone. […] The pea extract used was obtained by a blanching water process containing the composition as described in table 1. The results given are the average rating of a panel of 12 experienced tasters rating the umami intensity (0=no umami; 10=strong umami).

Compound | threshold concentrate [1] | Contribution to umami taste (in words) (umami taste) | Umami Rating [2] | Umami Rating [3]
(5R)-(β-D-glucopyranosyloxy)-1,5-dihydro-2H-pyrrol-2-one [beta-R] | 147 ppm | responsible to provide and enhance an umami taste |  | 
N[C@@H](CCC(=O)O)C(=O)[O-].[Na+] [MSG, Monosodium glutamate] |  |  | 0 | 5
